Source: ChEMBL document CHEMBL1201862, “PubChem BioAssay data set” (2004)
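Growth conditions: 96-well plates. Treatment: test compound, 48 hours, 5 concentrations. Analysis: linear interpolation between bracketing concentrations; unreached endpoints set to highest concentration. GI50 is the concentration that inhibits growth by half.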 The source made the active and inactive calls. Cut-off read from the data, not from the text of the source: active = GI50 up to about 1.1 µM and inactive = higher.

Assays:
Assay in all cases: NCI anticancer screen, dose series, 48 h
[1] = system: A498
[2] = system: A549
[3] = system: BT-549
[4] = system: CCRF-CEM
[5] = system: HCT-15
[6] = system: K562
[7] = system: MCF7
[8] = system: MDA-N
[9] = system: MOLT-4
[10] = system: Malme-3M
[11] = system: NCI-H460
[12] = system: NCI-H522
[13] = system: NCI/ADR-RES
[14] = system: OVCAR-8
[15] = system: SK-MEL-2
[16] = system: SK-OV-3
[17] = system: SN12C
[18] = system: T47D
[19] = system: TK-10
[20] = system: DMS-273

## Cc1cc(C)c(C2=NOC(c3ccccc3)(c3cc(=O)n(-c4ccccc4)s3)O2)c(C)c1 (stereo not given)
[1]
  GI50: > 100 µM (inactive)
[2]
  GI50: 29.5 µM (inactive)
[3]
  GI50: 24.8 µM (inactive)
[4]
  GI50: 23.8 µM (inactive)
[5]
  GI50: 19.3 µM
[6]
  GI50: > 100 µM (inactive)
[7]
  GI50: 18.6 µM (inactive)
[8]
  GI50: 38.8 µM (inactive)
[9]
  GI50: 41.9 µM (inactive)
[10]
  GI50: 18.8 µM (inactive)
[11]
  GI50: 43.1 µM (inactive)
[12]
  GI50: 17.5 µM (inactive)
[13]
  GI50: 23.3 µM (inactive)
[14]
  GI50: 18.7 µM (inactive)
[15]
  GI50: 28 µM (inactive)
[16]
  GI50: > 100 µM (inactive)
[17]
  GI50: 33 µM (inactive)
[18]
  GI50: 17.3 µM (inactive)
[19]
  GI50: 25.1 µM (inactive)

## N=c1oc2ccccc2cc1C(=O)NC12CC3CC(CC(C3)C1)C2
[1]
  GI50: 22.1 µM (inactive)
[2]
  GI50: 16.2 µM (inactive)
[3]
  GI50: 18.2 µM (inactive)
[4]
  GI50: 3.18 µM (inactive)
[5]
  GI50: 12.5 µM
[6]
  GI50: 13.9 µM (inactive)
[7]
  GI50: 3.7 µM (inactive)
[8]
  GI50: 26.2 µM (inactive)
[9]
  GI50: 2.41 µM (inactive)
[10]
  GI50: 32.1 µM (inactive)
[11]
  GI50: 14.4 µM (inactive)
[12]
  GI50: 3.55 µM (inactive)
[13]
  GI50: 24.2 µM (inactive)
[14]
  GI50: 30.4 µM (inactive)
[15]
  GI50: 14 µM (inactive)
[16]
  GI50: 7.64 µM (inactive)
[17]
  GI50: 28.2 µM (inactive)
[18]
  GI50: 4.52 µM (inactive)
[19]
  GI50: 16 µM (inactive)

## O=c1[nH]c(=O)n(C2CC(O)C(CO)O2)cc1C#Cc1cc(F)cc(F)c1 (stereo not given)
[2]
  GI50: > 100 µM (inactive)
[4]
  GI50: > 100 µM (inactive)
[20]
  GI50: > 100 µM (inactive)
[5]
  GI50: > 100 µM
[6]
  GI50: > 100 µM (inactive)
[9]
  GI50: > 100 µM (inactive)
[10]
  GI50: > 100 µM (inactive)
[11]
  GI50: > 100 µM (inactive)
[12]
  GI50: > 100 µM (inactive)
[14]
  GI50: > 100 µM (inactive)
[15]
  GI50: > 100 µM (inactive)
[16]
  GI50: > 100 µM (inactive)
[17]
  GI50: > 100 µM (inactive)

## Cc1cc(=O)n2nc(CSc3nnc(Sc4cc(O)ccc4O)s3)sc2n1
[1]
  GI50: > 100 µM (inactive)
[2]
  GI50: > 100 µM (inactive)
[3]
  GI50: 39.3 µM (inactive)
[4]
  GI50: 22.6 µM (inactive)
[5]
  GI50: > 100 µM
[6]
  GI50: 21.5 µM (inactive)
[7]
  GI50: 14.2 µM (inactive)
[8]
  GI50: 18.6 µM (inactive)
[9]
  GI50: 24.4 µM (inactive)
[10]
  GI50: 40.3 µM (inactive)
[11]
  GI50: > 100 µM (inactive)
[12]
  GI50: 20.4 µM (inactive)
[13]
  GI50: > 100 µM (inactive)
[14]
  GI50: 67.1 µM (inactive)
[15]
  GI50: > 100 µM (inactive)
[16]
  GI50: > 100 µM (inactive)
[17]
  GI50: 58.1 µM (inactive)
[18]
  GI50: 32.1 µM (inactive)
[19]
  GI50: > 100 µM (inactive)
